From the PolyMetriX glass transition set come the findings set out here.

Regarding `*C(=O)Nc1ccc(Cc2ccc(NC(=O)c3ccc4c(c3)C(=O)N(c3c(C)cc(-c5cc(C)c(N6C(=O)c7ccc(*)cc7C6=O)c(C)c5)cc3C)C4=O)c(C)c2)cc1C` (repeat unit), the glass transition temperature was found to be 329.00 °C.
`*C(=O)c1cc2c(cc1Cl)C(=O)N(c1cc(C(=O)O)cc(N3C(=O)c4cc(*)c(Cl)cc4C3=O)c1)C2=O` (repeat unit) came in with a glass transition temperature of 368.00 °C.
Then `*C(=O)c1cc2c(cc1Cl)C(=O)N(c1cc(C(=O)OC)cc(N3C(=O)c4cc(*)c(Cl)cc4C3=O)c1)C2=O` (repeat unit), with 321.00 °C; and `*C(=O)c1ccc(Oc2ccc(Oc3ccc(C(=O)c4ccc5c(c4)C(=O)N(c4ccc(Cc6ccc(N7C(=O)c8ccc(*)cc8C7=O)cc6)cc4)C5=O)cc3)cc2)cc1` (repeat unit), with 225.00 °C; and `*C(=O)c1ccc2c(c1)C(=O)N(c1c(C)cc(-c3cc(C)c(N4C(=O)c5ccc(*)cc5C4=O)c(C)c3)cc1C)C2=O` (repeat unit), with 310.00 °C.
Then `*C(=O)c1ccc2c(c1)C(=O)N(c1c(C)cc(C(c3cc(C(F)(F)F)cc(C(F)(F)F)c3)c3cc(C)c(N4C(=O)c5ccc(*)cc5C4=O)c(C)c3)cc1C)C2=O` (repeat unit), with 301.10 °C; and `*C(=O)c1ccc2c(c1)C(=O)N(c1c(C)cc(C(c3cc(C)c(N4C(=O)c5ccc(*)cc5C4=O)c(C)c3)c3cccc4ccccc34)cc1C)C2=O` (repeat unit), with 318.00 °C; and `*C(=O)c1ccc2c(c1)C(=O)N(c1cc(C(=O)O)cc(N3C(=O)c4ccc(*)cc4C3=O)c1)C2=O` (repeat unit), with 314.00 °C.
`*C(=O)c1ccc2c(c1)C(=O)N(c1cc(C(=O)c3ccccc3)cc(N3C(=O)c4ccc(*)cc4C3=O)c1)C2=O` (repeat unit) gave a glass transition temperature of 282.00 °C.
Then `*C(=O)c1ccc2c(c1)C(=O)N(c1ccc(C(c3ccccc3)(c3ccc(N4C(=O)c5ccc(*)cc5C4=O)cc3)C(F)(F)F)cc1)C2=O` (repeat unit), with 311.00 °C.
Take `*C(=O)c1ccc2c(c1)C(=O)N(c1ccc(C3(c4ccc(N5C(=O)c6ccc(*)cc6C5=O)cc4)c4ccccc4-c4ccccc43)cc1)C2=O` (repeat unit): the glass transition temperature stood at 376.00 °C.
Consider `*C(=O)c1ccc2c(c1)C(=O)N(c1ccc(CP(=O)(OCCCl)OCCCl)c(N3C(=O)c4ccc(*)cc4C3=O)c1)C2=O` (repeat unit), for which the glass transition temperature amounted to 261.00 °C.
In turn, `*C(=O)c1ccc2c(c1)C(=O)N(c1ccc(Cc3ccc(Cc4ccc(Cc5ccc(N6C(=O)c7ccc(*)cc7C6=O)cc5)cc4)cc3)cc1)C2=O` (repeat unit) displayed a glass transition temperature of 302.00 °C.
On to `*CC(O)COc1ccc(C(C)(C)c2ccc(OCC(O)COc3c(C)cc(S(=O)(=O)c4cc(C)c(O*)c(C)c4)cc3C)cc2)cc1` (repeat unit), for which the glass transition temperature came out at 137.50 °C.
The compound `*OP(=O)(Oc1ccc(Br)cc1)Oc1c(C)cc(S(=O)(=O)c2cc(C)c(*)c(C)c2)cc1C` (repeat unit) showed a glass transition temperature of 162.00 °C.
`*O[Si](C)(C)c1ccc([Si](C)(C)Oc2c(C)cc(-c3cc(C)c(*)c(C)c3)cc2C)cc1` (repeat unit) came in with a glass transition temperature of 67.00 °C.
The compound `*Oc1c(Br)cc(C(C)(C)c2cc(Br)c(OC(=O)c3cccc(C(*)=O)c3)c(Br)c2)cc1Br` (repeat unit) registered a glass transition temperature of 115.00 °C.
Compound `*Oc1c(C)cc(-c2cc(C)c(Oc3ccc(C(=O)c4ccc5cc(C(=O)c6ccc(*)cc6)ccc5c4)cc3)c(C)c2)cc1C` (repeat unit) had a glass transition temperature of 270.00 °C.
In the case of `*Oc1c(C)cc(-c2cc(C)c(Oc3ccc(C(=O)c4ccccc4-c4ccccc4C(=O)c4ccc(*)cc4)cc3)c(C)c2)cc1C` (repeat unit), the glass transition temperature was found to be 233.00 °C.
As for `*Oc1c(C)cc(C(C)(C)c2cc(C)c(OC(*)=O)c(C)c2)cc1C` (repeat unit), the glass transition temperature stood at 193.00 °C.
Turning to `*Oc1c(C)cc(C(C)(C)c2cc(C)c(OC(=O)c3ccc(C(*)=O)cc3)c(C)c2)cc1C` (repeat unit), the glass transition temperature worked out at 239.00 °C.
`*Oc1c(C)cc(C(C)(C)c2cc(C)c(ON3C(=O)c4ccc(Oc5ccc(C6(c7ccc(Oc8ccc9c(c8)C(=O)N(*)C9=O)cc7)CCC(C(C)(C)C)CC6)cc5)cc4C3=O)c(C)c2)cc1C` (repeat unit) had a glass transition temperature of 248.00 °C.
`*Oc1c(C)cc(C2(c3cc(C)c(OC(=O)c4ccc(C(*)=O)cc4)c(C)c3)CCC3CCCCC3C2)cc1C` (repeat unit) came in with a glass transition temperature of 287.00 °C.
`*Oc1c(C)cc(C2(c3cc(C)c(Oc4ccc(C(=O)c5cccc(C(=O)c6ccc(*)cc6)c5)cc4)c(C)c3)CCC3CCCCC3C2)cc1C` (repeat unit) gave a glass transition temperature of 224.00 °C.
`*c1c(C)cc(-c2cc(C)c(-n3c(=O)c4cc5c(=O)n(*)c(=O)c5cc4c3=O)c(C)c2)cc1C` (repeat unit) yielded a glass transition temperature of 340.00 °C.
Then `*c1c(C)cc(-c2cc(C)c(N3C(=O)c4ccc(Oc5cc6ccccc6cc5Oc5ccc6c(c5)C(=O)N(*)C6=O)cc4C3=O)c(C)c2)cc1C` (repeat unit), with 308.00 °C; and `*c1c(C)cc(-c2cc(C)c(N3C(=O)c4cccc(Oc5ccc(C(C)(C)c6ccc(Oc7cccc8c7C(=O)N(*)C8=O)cc6)cc5)c4C3=O)c(C)c2)cc1C` (repeat unit), with 265.00 °C.
Regarding `*c1c(C)cc(C(c2cc(C(F)(F)F)cc(C(F)(F)F)c2)c2cc(C)c(N3C(=O)c4ccc(-c5ccc6c(c5)C(=O)N(*)C6=O)cc4C3=O)c(C)c2)cc1C` (repeat unit), the glass transition temperature stood at 317.40 °C.
Then `*c1c(C)cc(C(c2cc(C)c(N3C(=O)c4ccc(-c5ccc6c(c5)C(=O)N(*)C6=O)cc4C3=O)c(C)c2)c2cccc3ccccc23)cc1C` (repeat unit), with 326.00 °C; and `*c1c(C)cc(C(c2cccc(C(F)(F)F)c2)c2cc(C)c(N3C(=O)c4ccc(-c5ccc6c(c5)C(=O)N(*)C6=O)cc4C3=O)c(C)c2)cc1C` (repeat unit), with 312.90 °C.
Then `*c1c(C)cc(C(c2cccc(C(F)(F)F)c2)c2cc(C)c(N3C(=O)c4ccc(Oc5ccc6c(c5)C(=O)N(*)C6=O)cc4C3=O)c(C)c2)cc1C` (repeat unit), with 264.10 °C; and `*c1c(C)cc(C(c2cccnc2)c2cc(C)c(N3C(=O)CC(Nc4ccc(Cc5ccc(NC6CC(=O)N(*)C6=O)cc5)cc4)C3=O)c(C)c2)cc1C` (repeat unit), with 219.00 °C.
Regarding `*c1cc(Br)c(-c2c(Br)cc(N3C(=O)c4ccc(-c5ccc6c(c5)C(=O)N(*)C6=O)cc4C3=O)cc2C(=O)OCCCCCC)c(C(=O)OCCCCCC)c1` (repeat unit), the glass transition temperature amounted to 154.00 °C.
Compound `*c1cc(Br)c(-c2c(Br)cc(N3C(=O)c4ccc(-c5ccc6c(c5)C(=O)N(*)C6=O)cc4C3=O)cc2C(=O)OCCCCCCCCCCCC)c(C(=O)OCCCCCCCCCCCC)c1` (repeat unit) had a glass transition temperature of 108.00 °C.
Consider `*c1cc(Br)c(-c2c(Br)cc(N3C(=O)c4ccc(-c5ccc6c(c5)C(=O)N(*)C6=O)cc4C3=O)cc2C(=O)OCCCCCCCCCCCCCC)c(C(=O)OCCCCCCCCCCCCCC)c1` (repeat unit), for which the glass transition temperature was determined as 98.00 °C.
`*c1cc(C(=O)NCCCC)cc(N2C(=O)c3ccc(-c4ccc5c(c4)C(=O)N(*)C5=O)cc3C2=O)c1` (repeat unit) displayed a glass transition temperature of 291.00 °C.
Consider `*c1cc(C(=O)OCC(F)(F)C(F)(F)C(F)(F)F)c(*)s1` (repeat unit), for which the glass transition temperature worked out at 129.00 °C.
Then `*c1cc(C(=O)OCC)cc(N2C(=O)CC(C3Cc4ccccc4C4C(=O)N(*)C(=O)C43)C2=O)c1` (repeat unit), with 254.00 °C; and `*c1cc(C(=O)OCCC)cc(N2C(=O)CC(C3Cc4ccccc4C4C(=O)N(*)C(=O)C43)C2=O)c1` (repeat unit), with 249.00 °C; and `*c1cc(C(=O)OCCCCCC)cc(N2C(=O)CC(C3Cc4ccccc4C4C(=O)N(*)C(=O)C43)C2=O)c1` (repeat unit), with 187.00 °C.
`*c1cc(C(=O)OCCCCCCCCCCOc2ccc(-c3ccc(OC(=O)c4ccc(OCC(F)CCCCCC)cc4)cc3)cc2)c(*)s1` (repeat unit) returned a glass transition temperature of 151.00 °C.
In the case of `*c1cc(C)c(/N=C/c2ccc(OCc3ccc(COc4ccc(/C=N/c5cc(C)c(N6C(=O)c7ccc8c9ccc%10c%11c(ccc(c%12ccc(c7c8%12)C6=O)c%119)C(=O)N(*)C%10=O)cc5C)cc4)cc3)cc2)cc1C` (repeat unit), the glass transition temperature is 130.00 °C.
Then `*c1cc(Oc2c(C)cc(-c3cc(C)c(Oc4cc(N5C(=O)c6ccc(Oc7ccc8c(c7)C(=O)N(*)C8=O)cc6C5=O)cc(C(F)(F)F)c4)c(C)c3)cc2C)cc(C(F)(F)F)c1` (repeat unit), with 252.20 °C; and `*c1ccc(C(=O)Oc2c(C)cc(C(c3cccnc3)c3cc(C)c(OC(=O)c4ccc(N5C(=O)CC(Nc6cccc(NC7CC(=O)N(*)C7=O)c6)C5=O)cc4)c(C)c3)cc2C)cc1` (repeat unit), with 194.00 °C.
Then `*c1ccc(Oc2c(C)cc(C(c3cccnc3)c3cc(C)c(Oc4ccc(N5C(=O)CC(Nc6cccc(NC7CC(=O)N(*)C7=O)c6)C5=O)cc4)c(C)c3)cc2C)cc1` (repeat unit), with 217.00 °C.
The compound `*c1ccc2c(c1)C(=O)N(c1c(C)cc(-c3cc(C)c(-c4cc(C)c(N5C(=O)c6ccc(C(*)(C(F)(F)F)C(F)(F)F)cc6C5=O)c(C)c4)cc3C)cc1C)C2=O` (repeat unit) showed a glass transition temperature of 361.00 °C.
Turning to `*c1ccc2c(c1)C(=O)N(c1c(C)cc(C(c3cc(C)c(N4C(=O)c5ccc(C(*)(C(F)(F)F)C(F)(F)F)cc5C4=O)c(C)c3)c3cccc4ccccc34)cc1C)C2=O` (repeat unit), the glass transition temperature was determined as 314.00 °C.
As to `*c1ccc2c(c1)C(=O)N(c1c(C)cc(C(c3cccc(C(F)(F)F)c3)c3cc(C)c(N4C(=O)c5ccc(C(*)(C(F)(F)F)C(F)(F)F)cc5C4=O)c(C)c3)cc1C)C2=O` (repeat unit), the glass transition temperature amounted to 286.10 °C.
`*c1ccc2c(c1)C(=O)N(c1cc(C(=O)O)cc(N3C(=O)c4ccc(C(*)(C(F)(F)F)C(F)(F)F)cc4C3=O)c1)C2=O` (repeat unit) had a glass transition temperature of 366.50 °C.
